Earlier results as cited in patent US8535717B2, “Pharmaceutical composition” (Sun Pharma Advanced Research Company Limited, priority 2005, dated 2013).

- solubility (cannot be decreased by altering pH of the microenvironment): 104 g/100 ml
- solubility in water (water): 104 g in 100 ml
SMILES: CC[C@@H](C(N)=O)N1CCCC1=O [levetiracetam]
